These results are taken from patent US11459308B2 (priority 2016, dated 2022).

Series [1] concerns authentic EBOV (EBOV-Zaire 1995). The series can be described thus: microbe, parasite or virus in culture. The conditions noted are these: Zaire ebolavirus, Vero, 48 h, read-out: infectious EBOV-Z IC50. Format: cell-based, Ebola virus.
For another series, the system named is rVSV-EBOV GP. The series can be described thus: microbe, parasite or virus in culture. It counts as cell-based, Zaire Ebolavirus. The conditions noted are these: for IC50: Zaire ebolavirus, read-out: rVSV-EBOV IC50.
The next series can be described thus: in vitro. The conditions noted are these: African green monkey.
For series [2], the system named is EBOV-GPCL/NPC1-C interaction. It counts as binding, human.
For another series, the system named is rVSV-SUDV GP. Format: cell-based, Sudan Ebolavirus.
The subject of a further series is rVSV-BDBV GP. Format: cell-based, Bundybugyo Ebolavirus.

SMILES strings stand for the structures.

The IC50 is the point on the concentration scale where inhibition reaches its midpoint. As to `O=[N+]([O-])c1ccc(N2CCN(CCO)CC2)cc1NC(c1ccccc1)c1ccccc1` [MBX 3588, 1-(benzhydrylamino)-5-[4-(2-hydroxyethyl)piperazin-1-yl]-2-nitrobenzene], the IC50 in series [1] worked out at 730 nM. The IC50 in the series on rVSV-EBOV GP turned out to be 1400 nM. In “in vitro”, this compound displayed a CC50 of 21000 nM. In addition, in series [2], the “inhibition of GPCL-NPC1-C AlphaLISA compared with biotin-streptavidin AlphaLISA” value was “much more potently” and the “selectivity for inhibition of the EBOV-GPCL/NPC1-C interaction vs. the biotin-streptavidin interaction” value is given as “about 10 fold”.
In the case of `O=[N+]([O-])c1ccc(N2CCN(Cc3ccoc3)CC2)cc1NC(c1ccccc1)c1ccccc1` [MBX 3574, 1-(benzhydrylamino)-5-[4-(furan-3-ylmethyl)piperazin-1-yl]-2-nitrobenzene], the IC50 in series [1] is 1200 nM; with rVSV-EBOV GP it was 560 nM. The “inhibition of infection of Vero cells by rVSV-EBOV GP” value in the series on rVSV-EBOV GP is recorded as “potent inhibitors”. Also, the “inhibition of infection of Vero cells by rVSV-SUDV GP” value with rVSV-SUDV GP is recorded as “potent inhibitors”. Further, in the series on rVSV-BDBV GP, the “inhibition of infection of Vero cells by rVSV-BDBV GP” value is “potent inhibitors”. In addition, the CC50 in “in vitro” was greater than 200000 nM.
`CCCN1CCN(c2ccc([N+](=O)[O-])c(NC(c3ccccc3)c3ccccc3)c2)CC1` [MBX 3566, 1-(benzhydrylamino)-5-(4-propylpiperazin-1-yl)-2-nitrobenzene]: the IC50 in series [1] was 1600 nM; in the series with rVSV-EBOV GP, 2400 nM. Besides, in the series “in vitro”, the CC50 is greater than 200000 nM.
The like results for `CN(C)CCN(C)c1ccc([N+](=O)[O-])c(NC(c2ccccc2)c2ccccc2)c1` [MBX 3729, 2-(benzhydrylamino)-4-{[2-(dimethylamino)ethyl](methyl)amino}-1-nitrobenzene] were, in that order, 1300 nM, less than 100 nM and 10000 nM.
The like results for `O=[N+]([O-])c1ccc(N2CCN(Cc3ccsc3)CC2)cc1NC(c1ccccc1)c1ccccc1` [MBX 3577, 1-(benzhydrylamino)-5-[4-(thiophen-3-ylmethyl)piperazin-1-yl]-2-nitrobenzene] were, in that order, greater than 20000 nM, 6500 nM and greater than 200000 nM.
On to `CCN1CCN(c2ccc([N+](=O)[O-])c(NC(c3ccccc3)c3ccccc3)c2)CC1` [MBX 3557, 1-(benzhydrylamino)-5-(4-ethylpiperazin-1-yl)-2-nitrobenzene], for which the IC50 in series [1] came out at 1900 nM; with rVSV-EBOV GP, 1400 nM. The CC50 in “in vitro” amounted to 20000 nM.
The like results for `O=[N+]([O-])c1ccc(N2CCN(C3CCCC3)CC2)cc1NC(c1ccccc1)c1ccccc1` [MBX 3580, 1-(benzhydrylamino)-5-(4-cyclopentylpiperazin-1-yl)-2-nitrobenzene] were, in that order, 2700 nM, 1800 nM and greater than 100000 nM.
The like results for `CC(C)N1CCN(c2ccc([N+](=O)[O-])c(NC(c3ccccc3)c3ccccc3)c2)CC1` [MBX 3561, 1-(benzhydrylamino)-5-(4-isopropylpiperazin-1-yl)-2-nitrobenzene] were, in that order, 1700 nM, 1500 nM and 63000 nM.
The like results for `c1ccc(C(c2ccccc2)n2cnc3ccc(N4CCN5CCCC5C4)cc32)cc1` (centres unmarked) [MBX 4210, 1-benzhydryl-6-(hexahydropyrrolo[1,2-a]pyrazin-2(1H)-yl)-1H-benzo[d]imidazole] were, in that order, 1800 nM, 1600 nM and greater than 200000 nM.
Take `O=[N+]([O-])c1ccc(N2CCN(CCCO)CC2)cc1NC(c1ccccc1)c1ccccc1` [MBX 3610, 2-(benzhydrylamino)-4-[4-(3-hydroxypropyl)piperazin-1-yl]nitrobenzene]: the IC50 (in series [1]; in the series with rVSV-EBOV GP) was 600 nM in each case. The CC50 in the series “in vitro” worked out at 17000 nM.
`CN1CCN(c2ccnc(NC(c3ccccc3)c3ccccc3)c2)CC1` [MBX 3586, 2-(benzhydrylamino)-4-(4-methylpiperazin-1-yl)pyridine]: the IC50 in series [1] worked out at 2600 nM; in the series on rVSV-EBOV GP it was 7000 nM. Besides, the CC50 in the series “in vitro” turned out to be 70000 nM.
The like results for `CN1CCN(c2ccc([N+](=O)[O-])c(NC(C)(C)c3ccccc3)c2)CC1` [MBX 3741, 2-(2-phenylpropan-2-ylamino)-4-(4-methylpiperazin-1-yl)-1-nitrobenzene] were, in that order, 10300 nM, 3100 nM and 85000 nM.
Turning to `Cc1cccc(C(Nc2cc(N3CCN(C)CC3)ccc2[N+](=O)[O-])c2ccccc2)c1` (centres unmarked) [MBX 3634, 2-[phenyl(m-tolyl)methylamino]-4-(4-methylpiperazin-1-yl)nitrobenzene], the 50% inhibitory concentration (IC50) worked out at 3000 nM in series [1] and 3400 nM in the series with rVSV-EBOV GP. Besides, in the series “in vitro”, the CC50 is greater than 100000 nM.
Taken in the same sequence, the figures for `CN(C)CCCNc1ccc([N+](=O)[O-])c(NC(c2ccccc2)c2ccccc2)c1` [MBX 4335] were 480 nM, 790 nM and 11000 nM.
The like results for `COCCN1CCN(c2ccc([N+](=O)[O-])c(NC(c3ccccc3)c3ccccc3)c2)CC1` [MBX 3591, 1-(benzhydrylamino)-5-[4-(2-methoxyethyl)piperazin-1-yl]-2-nitrobenzene] were, in that order, 1400 nM, 1600 nM and greater than 100000 nM.
The like results for `CN(C)CCCNc1ccc2ncn(C(c3ccccc3)c3ccccc3)c2c1` [MBX 4252, N^1-(1-benzhydryl-1H-benzo[d]imidazol-6-yl)-N^3,N^3-dimethylpropane-1,3-diamine] were, in that order, 8620 nM, 3930 nM and 50000 nM.
